# Laboratory results taken from patent US20170333459A1 (priority 2010, published 2017).
# Values joined by “and” are separate entries in the source; they are usually repeats but may differ in a detail not shown here. Equal values may be shown once.
# Experiments:
# [1] = molecular target: T1, human Organic Anion Transporter 1 (hOAT1) (Homo sapiens, UniProt Q4U2R8)
# T1 sequence (Q4U2R8 1-563): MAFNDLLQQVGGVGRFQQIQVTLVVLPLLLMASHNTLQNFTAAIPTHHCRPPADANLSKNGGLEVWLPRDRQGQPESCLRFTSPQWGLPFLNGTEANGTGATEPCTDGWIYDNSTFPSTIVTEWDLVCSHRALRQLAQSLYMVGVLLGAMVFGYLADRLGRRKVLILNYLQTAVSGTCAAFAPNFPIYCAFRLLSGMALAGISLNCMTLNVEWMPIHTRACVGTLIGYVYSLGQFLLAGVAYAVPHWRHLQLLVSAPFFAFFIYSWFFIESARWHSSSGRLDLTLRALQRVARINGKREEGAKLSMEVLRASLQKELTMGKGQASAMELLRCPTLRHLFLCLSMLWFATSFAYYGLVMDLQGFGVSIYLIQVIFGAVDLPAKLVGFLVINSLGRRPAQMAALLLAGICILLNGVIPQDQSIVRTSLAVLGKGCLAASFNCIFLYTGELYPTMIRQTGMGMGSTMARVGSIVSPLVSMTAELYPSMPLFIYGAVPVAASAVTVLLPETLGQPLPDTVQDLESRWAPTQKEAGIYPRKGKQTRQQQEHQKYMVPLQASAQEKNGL
# hOAT3 [2] = molecular target: T2, hOAT3 (Homo sapiens, UniProt Q8TCC7); conditions: MDCK
# T2 sequence (Q8TCC7 1-542): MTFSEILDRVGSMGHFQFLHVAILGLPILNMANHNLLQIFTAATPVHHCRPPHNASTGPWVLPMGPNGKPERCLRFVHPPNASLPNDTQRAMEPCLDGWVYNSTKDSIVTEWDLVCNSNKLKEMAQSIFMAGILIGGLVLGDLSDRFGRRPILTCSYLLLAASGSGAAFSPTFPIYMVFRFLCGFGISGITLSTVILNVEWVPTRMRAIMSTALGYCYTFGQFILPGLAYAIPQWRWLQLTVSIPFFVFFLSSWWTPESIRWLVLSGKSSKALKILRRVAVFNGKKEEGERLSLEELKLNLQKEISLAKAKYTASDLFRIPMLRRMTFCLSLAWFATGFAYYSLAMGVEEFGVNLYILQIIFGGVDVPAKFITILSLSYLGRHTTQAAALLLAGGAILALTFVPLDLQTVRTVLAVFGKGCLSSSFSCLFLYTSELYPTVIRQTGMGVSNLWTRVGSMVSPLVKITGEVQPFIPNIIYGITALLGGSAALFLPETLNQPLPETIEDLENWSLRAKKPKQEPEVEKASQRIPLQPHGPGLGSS
# monkeypox virus = conditions: monkey, in vivo, iv, 20 mg/kg; cited from earlier work
# hOAT3 [3] = molecular target: T2, hOAT3; design: host or cells: MDCK-II cells, transiently transfected; conditions: reported for hOAT3-mediated uptake; cited from earlier work
# rabbitpox virus = test system: rabbitpox virus; design: species or system rabbits; conditions: rabbit, in vivo
# vaccinia virus = test system: vaccinia virus; design: species or system human; conditions: in vivo
# [4] = human, in vivo, po
# variola virus = conditions: read-out: in vitro potency; cited from earlier work
# [5] = human, in vivo, po; remark: listed apart in the source
Compound,Uptake (Transporter) ([1]; 5 min),net uptake in hOAT1 expressing cells ([1]; MDCK),uptake in the presence of OAT inhibitor probenecid ([1]; MDCK),net uptake in hOAT3 expressing cells (hOAT3 [2]),survivors (monkeypox virus),lower uptake efficiency (Vmax/Km) (hOAT3 [3]) [fold],effective single dose (rabbitpox virus) [mg/kg],preventing mortality (rabbitpox virus),survivors (rabbitpox virus; 20 mg/kg),clinical outcome of progressive vaccinia (vaccinia virus),effect of 20% serum on uptake ([1]; MDCK),substrate for hOAT1 ([1]; MDCK),"Net Transporter Uptake ([1]; human, MDCK) [pmol/min/cm^2]",substrate for hOAT3 (hOAT3 [2]),nephrotoxicity [4],EC50 (variola virus) [nM],ST-246 levels [5]
"Nc1ccn(C[C@@H](CO)OCP(=O)(O)O)c(=O)n1 [CDV, cidofovir]",116 ± 22 pmol/min/cm^2 and 117 ± 15 pmol/min/cm^2,enhanced,decreased,not enhanced,7/8,> 100,–,–,–,–,–,–,–,–,–,–,–
"CCCCCCCCCCCCCCCCOCCCOP(=O)(O)CO[C@H](CO)Cn1ccc(N)nc1=O [CMX001, 1-O-hexadecyloxypropyl cidofovir]",–,not enhanced,–,not enhanced,–,–,20,effective in preventing mortality,11/12,improvement of progressive vaccinia,substantially reduced,not a substrate,−0.3 ± 5.4,not a substrate,no signs of nephrotoxicity have been observed,100,–
"O=C(NN1C(=O)[C@@H]2[C@@H]3C=C[C@@H]([C@H]4C[C@@H]34)[C@@H]2C1=O)c1ccc(C(F)(F)F)cc1 [ST-246, reference compound]",–,–,–,–,–,–,–,–,–,improvement of progressive vaccinia,–,–,–,–,–,–,lower
